The target of assay [1] is Carbonic anhydrase 2 (Homo sapiens, UniProt P00918). The experiment in a line: CA Enzyme Assay. To be noted: pH 10. As for the experimental part: (§1) CA activity was measured by the Maren method which is based on determination of the time required for the pH to decrease from 10.0 to 7.4 due to CO2 hydration [Maren et al., J. Pharm. Exp. Ther., 130:2629-2634]. The assay solution was 0.5 M Na2CO3/0.1 M NaHCO3 (pH 10.0) and Phenol Red was added as the pH indicator.

Assay [2] has as its target Carbonic anhydrase 1 (Homo sapiens, UniProt P00915). Nature of the assay: CA Enzyme Assay. To be noted: pH 10. As for the experimental part: as §1

Results on four compounds are retold here after BindingDB's records for doi:10.3109/14756366.2012.677838 (Inonu University, 2013).

Carbonic anhydrase 1, sequence (P00915 whole entry): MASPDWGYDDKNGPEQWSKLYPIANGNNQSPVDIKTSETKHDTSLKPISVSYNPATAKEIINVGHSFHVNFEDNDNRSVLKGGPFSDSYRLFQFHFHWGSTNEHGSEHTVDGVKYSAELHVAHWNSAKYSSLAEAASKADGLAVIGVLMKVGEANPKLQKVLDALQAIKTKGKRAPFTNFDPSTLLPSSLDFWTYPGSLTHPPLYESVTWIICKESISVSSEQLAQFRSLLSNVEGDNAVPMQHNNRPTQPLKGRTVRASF

With `COCCN1CN(Cc2cc(=O)oc3c(O)c(O)ccc23)c2ccccc21` [1-(2-Methoxyethyl)-3-(4-methyl-7,8-dihydroxy-2H-chromen-2-one)benzimidazolium chloride (3d)], the IC50 was determined as 41.4 µM in assay [1] and 32.6 µM in assay [2].
For `C=CCN1CN(Cc2cc(=O)oc3c(O)c(O)ccc23)c2ccccc21` [1-Allyl-3-(4-methyl-7,8-dihydroxy-2H-chromen-2-one)benzimidazolium chloride (3c)], in that order: 29.7 µM and 48.1 µM.
For `Cc1cccc(CN2CN(Cc3cc(=O)oc4c(O)c(O)ccc34)c3ccccc32)c1` [1-(3-Methylbenzyl)-3-(4-methyl-7,8-dihydroxy-2H-chromen-2-one)benzimidazolium chloride (3g)], in that order: 28.9 µM and 22.1 µM.
For `CCOCCN1CN(Cc2cc(=O)oc3c(O)c(O)ccc23)c2ccccc21` [1-(2-Ethoxyethyl)-3-(4-methyl-7,8-dihydroxy-2H-chromen-2-one)benzimidazolium chloride (3e)], in that order: 33.2 µM and 32.9 µM.
